Assay results from article PMC8540642, “Antineoplastic Activity of Rhus trilobata Nutt. (Anacardiaceae) against Ovarian Cancer and Identification of Active Metabolites in This Pathology” (Plants, 2021).
pIC50: −log10 of the molar value. Read-outs that look alike come from different tables or passages of the source.

Legend:
BEAS-2B cells = assay: MTT cell viability, dose-response curves 24 h; format: cell-based; settings: Homo sapiens, BEAS-2B, MTT, read-out: IC50 (half-maximal inhibitory concentration), BEAS-2B
Experimental: (§1) Cultures (2 × 10^4 cells/well) were seeded with 200 μL of supplemented medium (Sigma®) in 96-well plates (Corning®, Corning, NY, USA) and incubated for 24 h. Cell treatments were 5-200 μg/mL of samples/controls for 24 h. At the end of the treatments, we added MTT (5 mg/mL, Sigma®) for 4 h of incubation, and optical density was measured at λ = 590 nm in a VariosKan® Flash (Thermo-Scientific®, Waltham, MA, USA). The half-maximal inhibitory concentration (IC50) was determined.

CACO-2 cells = assay: MTT cell viability, dose-response curves 24 h; format: cell-based; settings: Homo sapiens, Caco-2, MTT, 24 h, read-out: IC50 (half-maximal inhibitory concentration), CACO-2
Experimental: as §1

CHO-K1 cells = assay: MTT cell viability, dose-response curves 24 h; format: cell-based; settings: Cricetulus griseus, CHO-K1, 24 h, MTT, 24 h, read-out: IC50 (half-maximal inhibitory concentration), CHO-K1
Experimental: as §1

OVCAR-3 cells = assay: MTT cell viability, dose-response curves 24 h; format: cell-based; settings: Homo sapiens, OVCAR-3, MTT, 24 h, read-out: IC50 (half-maximal inhibitory concentration), OVCAR-3
Experimental: as §1

SKOV-3 cells [1] = assay: MTT cell viability, dose-response curves 24 h; format: cell-based, human; settings: Homo sapiens, SK-OV-3, MTT, 24 h, read-out: IC50 (half-maximal inhibitory concentration), SKOV-3
Experimental: as §1

SKOV-3 cells [2] = assay: Apoptosis (ApoTox-Glo Triplex caspase-3/7, ApoAlert DNA fragmentation/TUNEL); format: cell-based, human; settings: 24 h, vehicle group 2.47% ± 0.4%
Experimental: Cells (2 × 10^4/per well) were cultivated in 96-well black plates (Corning®, Corning, NY, USA) with 100 μL of supplemented medium (Sigma®, St. Louis, MO, USA) and incubated for 24 h. Treatments on adherent cells were conducted at 5-20 μg/mL of samples/controls for 24 h. Then, ApoTox-Glo™ Triplex Assay (Promega®, Madison, WI, USA) was used to determine events of viability (proliferation), cytotoxicity (necrosis), and apoptosis (caspase-3/7 activation). Additionally, apoptosis was confirmed by an ApoAlert™ DNA Fragmentation Assay (Clontech®, Kusatsu, Shiga, J.P.). Both assays were performed according to each manufacturer’s instructions. Finally, optical density was measured in a VariosKan® Flash (Thermo-Scientific®, Waltham, MA, USA).

IC50 (CACO-2 cells): 20 µg/mL
pIC50 (CACO-2 cells; value in brackets): 4.63
IC50 (OVCAR-3 cells): 8 µg/mL
pIC50 (OVCAR-3 cells; value in brackets): 5.03
IC50 (SKOV-3 cells [1]): 7 µg/mL
pIC50 (SKOV-3 cells [1]; value in brackets): 5.09
Compound: CC(=O)O[C@H]1C(=O)[C@@]2(C)[C@H]([C@H](OC(=O)c3ccccc3)[C@]3(O)C[C@H](OC(=O)[C@H](O)[C@@H](NC(=O)c4ccccc4)c4ccccc4)C(C)=C1C3(C)C)[C@]1(OC(C)=O)CO[C@@H]1C[C@@H]2O [Paclitaxel, paclitaxel, reference compound]
IC50 (BEAS-2B cells): 8 µg/mL
pIC50 (BEAS-2B cells; value in brackets): 5.03
IC50 (CHO-K1 cells): 10 µg/mL
pIC50 (CHO-K1 cells; value in brackets): 4.93
apoptosis: caspase-3/7 activity and nuclear DNA-fragmentation (SKOV-3 cells [2]): 46.42% ± 5.0%
